Test results as given in the kinase profiling compilation of Christmann-Franck et al. (2016).
Values belong to the compound of their own block, whether it stands above or below them.

Legend:
Test in all cases: radiometric filter-binding kinase assay
MAPK1 (human) = MAPK1 (human) (UniProt P28482)
NEK2 (human) = NEK2 (human) (UniProt P51955)
[1] = system: AKT2 (human), P31751 [S474D]
HIPK2 (human) = HIPK2 (human) (UniProt Q9H2X6)
CSNK1D (human) = CSNK1D (human) (UniProt P48730)
RIPK2 (human) = RIPK2 (human) (UniProt O43353)
MAP3K9 (human) = MAP3K9 (human) (UniProt P80192)
MARK3 (human) = MARK3 (human) (UniProt P27448)
BTK (human) = BTK (human) (UniProt Q06187)
FLT1 (human) = FLT1 (human) (UniProt P17948)
MAPK15 (human) = MAPK15 (human) (UniProt Q8TD08)
INSRR (human) = INSRR (human) (UniProt P14616)
DYRK2 (human) = DYRK2 (human) (UniProt Q92630)
[2] = system: RPS6KB1 (human), P23443 [T412E]
MAPKAPK3 (human) = MAPKAPK3 (human) (UniProt Q16644)
MAPK11 (human) = MAPK11 (human) (UniProt Q15759)
MAPK14 (human) = MAPK14 (human) (UniProt Q16539)
INSR (human) = INSR (human) (UniProt P06213)
AURKA (human) = AURKA (human) (UniProt O14965)
MARK4 (human) = MARK4 (human) (UniProt Q96L34)
IRAK4 (human) = IRAK4 (human) (UniProt Q9NWZ3)
HIPK1 (human) = HIPK1 (human) (UniProt Q86Z02)
YES1 (human) = YES1 (human) (UniProt P07947)
NEK6 (human) = NEK6 (human) (UniProt Q9HC98)
RPS6KA1 KD1 KD2 (human) = RPS6KA1 KD1 KD2 (human) (UniProt Q15418)
RPS6KA5 KD1 KD2 (human) = RPS6KA5 KD1 KD2 (human) (UniProt O75582)
PRKCA (human) = PRKCA (human) (UniProt P17252)
[3] = biological target: STK11 CAB39 STRADA (human) (UniProt Q9Y376+Q7RTN6+Q15831)
MKNK2 (human) = MKNK2 (human) (UniProt Q9HBH9)
CSNK2A1 (human) = CSNK2A1 (human) (UniProt P68400)
SRPK1 (human) = SRPK1 (human) (UniProt Q96SB4)

Chain of BTK (human) (Q06187 whole entry, looked up): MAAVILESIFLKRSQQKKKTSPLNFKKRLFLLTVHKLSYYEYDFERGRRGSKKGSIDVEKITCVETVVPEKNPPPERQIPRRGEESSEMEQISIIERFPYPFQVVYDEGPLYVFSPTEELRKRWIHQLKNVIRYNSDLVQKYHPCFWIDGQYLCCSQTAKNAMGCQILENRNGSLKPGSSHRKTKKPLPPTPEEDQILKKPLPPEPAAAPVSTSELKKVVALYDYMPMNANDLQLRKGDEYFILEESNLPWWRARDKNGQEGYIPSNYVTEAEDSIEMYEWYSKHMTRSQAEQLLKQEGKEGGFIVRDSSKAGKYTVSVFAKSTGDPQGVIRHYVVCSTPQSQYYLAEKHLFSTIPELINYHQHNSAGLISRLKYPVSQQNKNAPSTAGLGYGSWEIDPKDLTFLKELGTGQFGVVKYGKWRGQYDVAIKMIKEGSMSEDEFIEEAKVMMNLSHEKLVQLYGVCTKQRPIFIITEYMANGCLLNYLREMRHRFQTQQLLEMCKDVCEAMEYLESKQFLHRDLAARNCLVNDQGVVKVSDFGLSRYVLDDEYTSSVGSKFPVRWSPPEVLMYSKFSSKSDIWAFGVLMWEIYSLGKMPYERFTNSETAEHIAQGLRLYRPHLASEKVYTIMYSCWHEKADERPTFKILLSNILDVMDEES
Chain of CSNK2A1 (human) (P68400 whole entry, looked up): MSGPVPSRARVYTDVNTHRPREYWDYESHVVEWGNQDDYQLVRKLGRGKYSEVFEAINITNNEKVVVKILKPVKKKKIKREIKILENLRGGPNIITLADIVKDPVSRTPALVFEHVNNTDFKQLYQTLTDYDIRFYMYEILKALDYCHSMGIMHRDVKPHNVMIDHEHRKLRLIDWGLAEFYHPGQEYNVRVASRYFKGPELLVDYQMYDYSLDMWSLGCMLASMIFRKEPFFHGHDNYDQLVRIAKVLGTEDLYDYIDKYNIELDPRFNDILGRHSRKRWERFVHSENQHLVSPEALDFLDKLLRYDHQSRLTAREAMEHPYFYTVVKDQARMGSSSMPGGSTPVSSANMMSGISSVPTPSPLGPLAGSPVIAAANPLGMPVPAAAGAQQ
Chain of AKT2 (human), P31751 [S474D] (P31751 whole entry S474D, looked up): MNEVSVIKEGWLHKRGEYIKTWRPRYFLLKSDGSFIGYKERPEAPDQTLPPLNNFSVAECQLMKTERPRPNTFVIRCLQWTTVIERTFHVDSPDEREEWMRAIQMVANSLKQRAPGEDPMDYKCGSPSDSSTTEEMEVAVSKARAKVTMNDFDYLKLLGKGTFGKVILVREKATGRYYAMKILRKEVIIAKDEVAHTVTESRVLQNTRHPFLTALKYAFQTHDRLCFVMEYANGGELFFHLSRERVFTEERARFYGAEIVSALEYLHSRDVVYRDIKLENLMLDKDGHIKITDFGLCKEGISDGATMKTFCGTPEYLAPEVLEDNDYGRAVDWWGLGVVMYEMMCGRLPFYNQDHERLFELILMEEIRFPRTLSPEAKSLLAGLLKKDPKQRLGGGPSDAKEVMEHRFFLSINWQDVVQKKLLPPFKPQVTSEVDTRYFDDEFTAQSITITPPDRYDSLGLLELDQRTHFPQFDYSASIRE
Chain of MKNK2 (human) (Q9HBH9 whole entry, looked up): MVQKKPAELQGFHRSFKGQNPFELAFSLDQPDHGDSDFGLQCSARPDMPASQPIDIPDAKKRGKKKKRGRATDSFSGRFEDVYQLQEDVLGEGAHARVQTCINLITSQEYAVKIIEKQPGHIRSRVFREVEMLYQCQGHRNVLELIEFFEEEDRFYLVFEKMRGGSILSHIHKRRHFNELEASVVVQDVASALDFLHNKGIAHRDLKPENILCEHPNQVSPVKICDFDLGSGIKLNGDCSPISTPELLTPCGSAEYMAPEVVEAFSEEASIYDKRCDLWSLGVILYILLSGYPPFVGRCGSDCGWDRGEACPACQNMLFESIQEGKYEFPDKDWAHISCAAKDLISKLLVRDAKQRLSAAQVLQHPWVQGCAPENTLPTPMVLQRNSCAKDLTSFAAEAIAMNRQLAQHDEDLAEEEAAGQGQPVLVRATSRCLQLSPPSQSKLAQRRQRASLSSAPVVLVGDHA
Chain of MAPK14 (human) (Q16539 whole entry, looked up): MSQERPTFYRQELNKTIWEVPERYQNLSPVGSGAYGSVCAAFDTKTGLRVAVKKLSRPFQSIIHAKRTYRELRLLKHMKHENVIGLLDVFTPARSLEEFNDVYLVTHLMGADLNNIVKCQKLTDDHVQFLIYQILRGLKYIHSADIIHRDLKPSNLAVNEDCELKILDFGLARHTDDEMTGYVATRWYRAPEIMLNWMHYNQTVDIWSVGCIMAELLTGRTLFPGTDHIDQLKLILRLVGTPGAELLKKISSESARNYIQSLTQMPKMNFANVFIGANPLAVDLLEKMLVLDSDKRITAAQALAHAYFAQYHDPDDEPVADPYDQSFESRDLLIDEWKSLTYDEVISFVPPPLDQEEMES
Chain of NEK2 (human) (P51955 whole entry, looked up): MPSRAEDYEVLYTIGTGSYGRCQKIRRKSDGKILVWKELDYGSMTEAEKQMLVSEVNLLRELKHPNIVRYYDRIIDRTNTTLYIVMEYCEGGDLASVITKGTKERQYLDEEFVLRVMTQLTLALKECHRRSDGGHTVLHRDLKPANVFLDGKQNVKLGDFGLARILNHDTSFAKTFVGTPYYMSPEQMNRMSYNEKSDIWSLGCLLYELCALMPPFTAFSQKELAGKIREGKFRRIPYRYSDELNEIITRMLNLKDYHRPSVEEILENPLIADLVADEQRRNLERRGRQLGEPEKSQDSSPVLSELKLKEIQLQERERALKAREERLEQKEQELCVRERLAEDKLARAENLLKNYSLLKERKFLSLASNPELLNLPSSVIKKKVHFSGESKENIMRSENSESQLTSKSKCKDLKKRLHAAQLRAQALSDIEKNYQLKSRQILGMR
Chain of RPS6KB1 (human), P23443 [T412E] (P23443 whole entry T412E, looked up): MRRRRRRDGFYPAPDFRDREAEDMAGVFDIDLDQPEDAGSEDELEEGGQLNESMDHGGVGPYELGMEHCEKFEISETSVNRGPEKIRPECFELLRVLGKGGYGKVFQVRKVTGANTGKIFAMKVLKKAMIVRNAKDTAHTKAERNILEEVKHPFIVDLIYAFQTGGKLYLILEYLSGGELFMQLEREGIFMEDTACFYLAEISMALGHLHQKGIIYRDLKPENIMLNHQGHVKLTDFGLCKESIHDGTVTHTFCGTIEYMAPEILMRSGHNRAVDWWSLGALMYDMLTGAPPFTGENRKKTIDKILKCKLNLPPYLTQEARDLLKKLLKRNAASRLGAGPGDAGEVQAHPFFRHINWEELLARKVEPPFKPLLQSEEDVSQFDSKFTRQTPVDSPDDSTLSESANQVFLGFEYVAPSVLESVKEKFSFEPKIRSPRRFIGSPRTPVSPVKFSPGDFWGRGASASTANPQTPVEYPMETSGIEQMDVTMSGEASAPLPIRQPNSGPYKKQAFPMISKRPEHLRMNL
Chain of RPS6KA5 KD1 KD2 (human) (O75582 whole entry, looked up): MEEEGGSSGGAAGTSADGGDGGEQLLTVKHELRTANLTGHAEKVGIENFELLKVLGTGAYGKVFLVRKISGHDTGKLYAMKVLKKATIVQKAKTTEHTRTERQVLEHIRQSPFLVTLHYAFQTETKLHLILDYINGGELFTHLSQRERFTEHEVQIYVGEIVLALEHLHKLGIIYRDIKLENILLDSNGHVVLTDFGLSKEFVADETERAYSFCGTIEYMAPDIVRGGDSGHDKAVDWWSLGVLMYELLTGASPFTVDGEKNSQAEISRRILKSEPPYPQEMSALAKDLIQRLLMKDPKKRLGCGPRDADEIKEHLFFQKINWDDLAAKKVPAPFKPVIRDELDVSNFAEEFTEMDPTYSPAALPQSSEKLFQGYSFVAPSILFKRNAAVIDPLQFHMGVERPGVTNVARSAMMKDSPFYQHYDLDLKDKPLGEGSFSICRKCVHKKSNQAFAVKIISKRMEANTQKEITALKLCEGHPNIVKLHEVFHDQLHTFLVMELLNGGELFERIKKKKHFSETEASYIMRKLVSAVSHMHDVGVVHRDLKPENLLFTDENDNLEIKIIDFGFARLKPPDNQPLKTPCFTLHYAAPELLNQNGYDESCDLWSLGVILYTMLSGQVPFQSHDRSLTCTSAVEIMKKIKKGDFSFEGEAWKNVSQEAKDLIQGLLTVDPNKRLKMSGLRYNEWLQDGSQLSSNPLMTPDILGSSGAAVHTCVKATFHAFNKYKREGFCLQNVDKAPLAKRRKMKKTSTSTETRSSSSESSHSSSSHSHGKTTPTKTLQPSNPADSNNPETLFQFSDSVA

residual activity (MAPK1 (human); compound 1.0 µM): 94%
residual activity (MAPK1 (human); compound 10.0 µM): 92%
residual activity (NEK2 (human); compound 1.0 µM): 86%
residual activity (NEK2 (human); compound 10.0 µM): 86%
residual activity ([1]; compound 1.0 µM): 79%
residual activity ([1]; compound 10.0 µM): 68%
residual activity (HIPK2 (human); compound 1.0 µM): 81%
residual activity (HIPK2 (human); compound 10.0 µM): 88%
residual activity (CSNK1D (human); compound 1.0 µM): 94%
residual activity (CSNK1D (human); compound 10.0 µM): 101%
residual activity (RIPK2 (human); compound 10.0 µM): 112%
residual activity (MAP3K9 (human); compound 1.0 µM): 100%
residual activity (MAP3K9 (human); compound 10.0 µM): 96%
residual activity (MARK3 (human); compound 1.0 µM): 94%
residual activity (MARK3 (human); compound 10.0 µM): 98%
residual activity (BTK (human); compound 1.0 µM): 99%
residual activity (BTK (human); compound 10.0 µM): 89%
residual activity (FLT1 (human); compound 1.0 µM): 91%
residual activity (FLT1 (human); compound 10.0 µM): 88%
residual activity (INSRR (human); compound 1.0 µM): 81%
residual activity (INSRR (human); compound 10.0 µM): 87%
residual activity (DYRK2 (human); compound 1.0 µM): 105%
residual activity (DYRK2 (human); compound 10.0 µM): 107%
residual activity ([2]; compound 1.0 µM): 83%
residual activity ([2]; compound 10.0 µM): 99%
residual activity (MAPKAPK3 (human); compound 1.0 µM): 119%
residual activity (MAPKAPK3 (human); compound 10.0 µM): 114%
residual activity (MAPK11 (human); compound 1.0 µM): 91%
residual activity (MAPK11 (human); compound 10.0 µM): 88%
residual activity (MAPK14 (human); compound 1.0 µM): 97%
residual activity (MAPK14 (human); compound 10.0 µM): 102%
residual activity (INSR (human); compound 1.0 µM): 88%
residual activity (INSR (human); compound 10.0 µM): 106%
residual activity (AURKA (human); compound 1.0 µM): 101%
residual activity (AURKA (human); compound 10.0 µM): 102%
residual activity (MARK4 (human); compound 1.0 µM): 98%
residual activity (MARK4 (human); compound 10.0 µM): 96%
residual activity (IRAK4 (human); compound 1.0 µM): 109%
residual activity (IRAK4 (human); compound 10.0 µM): 99%
residual activity (HIPK1 (human); compound 1.0 µM): 91%
residual activity (HIPK1 (human); compound 10.0 µM): 91%
residual activity (YES1 (human); compound 1.0 µM): 107%
residual activity (YES1 (human); compound 10.0 µM): 92%
residual activity (NEK6 (human); compound 1.0 µM): 89%
residual activity (NEK6 (human); compound 10.0 µM): 119%
residual activity (RPS6KA1 KD1 KD2 (human); compound 1.0 µM): 80%
residual activity (RPS6KA1 KD1 KD2 (human); compound 10.0 µM): 92%
residual activity (RPS6KA5 KD1 KD2 (human); compound 1.0 µM): 78%
residual activity (RPS6KA5 KD1 KD2 (human); compound 10.0 µM): 90%
residual activity (PRKCA (human); compound 1.0 µM): 97%
residual activity (PRKCA (human); compound 10.0 µM): 96%
residual activity ([3]; compound 1.0 µM): 111%
residual activity ([3]; compound 10.0 µM): 110%
residual activity (MKNK2 (human); compound 1.0 µM): 106%
residual activity (MKNK2 (human); compound 10.0 µM): 102%
residual activity (CSNK2A1 (human); compound 1.0 µM): 95%
residual activity (CSNK2A1 (human); compound 10.0 µM): 87%
residual activity (SRPK1 (human); compound 1.0 µM): 93%
residual activity (SRPK1 (human); compound 10.0 µM): 89%
SMILES: CN1C(=O)[C@@H](Cc2c[nH]c3ccccc23)NC1=S
residual activity (MAPK15 (human); compound 1.0 µM): 98%
residual activity (MAPK15 (human); compound 10.0 µM): 103%

residual activity (MAPK1 (human); compound 1.0 µM): 104%
residual activity (MAPK1 (human); compound 10.0 µM): 97%
residual activity (NEK2 (human); compound 10.0 µM): 97%
residual activity ([1]; compound 10.0 µM): 94%
residual activity (HIPK2 (human); compound 10.0 µM): 94%
residual activity (CSNK1D (human); compound 1.0 µM): 103%
residual activity (CSNK1D (human); compound 10.0 µM): 95%
residual activity (RIPK2 (human); compound 1.0 µM): 115%
residual activity (RIPK2 (human); compound 10.0 µM): 95%
residual activity (MAP3K9 (human); compound 1.0 µM): 105%
residual activity (MAP3K9 (human); compound 10.0 µM): 89%
residual activity (MARK3 (human); compound 1.0 µM): 117%
residual activity (MARK3 (human); compound 10.0 µM): 109%
residual activity (BTK (human); compound 1.0 µM): 97%
residual activity (BTK (human); compound 10.0 µM): 74%
residual activity (FLT1 (human); compound 1.0 µM): 102%
residual activity (FLT1 (human); compound 10.0 µM): 105%
residual activity (INSRR (human); compound 10.0 µM): 80%
residual activity (DYRK2 (human); compound 1.0 µM): 99%
residual activity (DYRK2 (human); compound 10.0 µM): 79%
residual activity ([2]; compound 1.0 µM): 80%
residual activity ([2]; compound 10.0 µM): 90%
residual activity (MAPKAPK3 (human); compound 1.0 µM): 116%
residual activity (MAPKAPK3 (human); compound 10.0 µM): 85%
residual activity (MAPK11 (human); compound 1.0 µM): 113%
residual activity (MAPK11 (human); compound 10.0 µM): 109%
residual activity (MAPK14 (human); compound 1.0 µM): 105%
residual activity (MAPK14 (human); compound 10.0 µM): 101%
residual activity (INSR (human); compound 1.0 µM): 101%
residual activity (INSR (human); compound 10.0 µM): 97%
residual activity (AURKA (human); compound 10.0 µM): 100%
residual activity (MARK4 (human); compound 1.0 µM): 98%
residual activity (MARK4 (human); compound 10.0 µM): 89%
residual activity (IRAK4 (human); compound 1.0 µM): 104%
residual activity (IRAK4 (human); compound 10.0 µM): 97%
residual activity (HIPK1 (human); compound 1.0 µM): 111%
residual activity (HIPK1 (human); compound 10.0 µM): 105%
residual activity (YES1 (human); compound 1.0 µM): 113%
residual activity (YES1 (human); compound 10.0 µM): 103%
residual activity (NEK6 (human); compound 1.0 µM): 98%
residual activity (NEK6 (human); compound 10.0 µM): 97%
residual activity (RPS6KA1 KD1 KD2 (human); compound 1.0 µM): 129%
residual activity (RPS6KA1 KD1 KD2 (human); compound 10.0 µM): 122%
residual activity (RPS6KA5 KD1 KD2 (human); compound 1.0 µM): 109%
residual activity (RPS6KA5 KD1 KD2 (human); compound 10.0 µM): 95%
residual activity (PRKCA (human); compound 1.0 µM): 90%
residual activity (PRKCA (human); compound 10.0 µM): 85%
residual activity ([3]; compound 1.0 µM): 124%
residual activity ([3]; compound 10.0 µM): 117%
residual activity (MKNK2 (human); compound 1.0 µM): 76%
residual activity (MKNK2 (human); compound 10.0 µM): 99%
residual activity (CSNK2A1 (human); compound 1.0 µM): 83%
residual activity (CSNK2A1 (human); compound 10.0 µM): 29%
residual activity (SRPK1 (human); compound 1.0 µM): 106%
residual activity (SRPK1 (human); compound 10.0 µM): 104%
SMILES: O=C(O)c1cc(N=Nc2ccc(S(=O)(=O)Nc3ccccn3)cc2)ccc1O
residual activity (MAPK15 (human); compound 1.0 µM): 111%
residual activity (MAPK15 (human); compound 10.0 µM): 109%
